Assay results taken from PMC10065799, “High-throughput profiling of sequence recognition by tyrosine kinases and SH2 domains using bacterial peptide display” (eLife, 2023).

T1: c-Abl kinase domain (Mus musculus, UniProt P00520)
T1 sequence (P00520 242-493 limits assumed): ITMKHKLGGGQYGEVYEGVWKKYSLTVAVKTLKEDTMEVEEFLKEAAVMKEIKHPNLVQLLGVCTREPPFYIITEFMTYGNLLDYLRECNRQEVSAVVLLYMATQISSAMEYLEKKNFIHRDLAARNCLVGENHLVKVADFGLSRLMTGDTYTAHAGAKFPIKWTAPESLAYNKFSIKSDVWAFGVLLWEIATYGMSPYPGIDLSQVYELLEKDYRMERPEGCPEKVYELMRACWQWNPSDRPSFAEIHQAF


Experiments:
c-Abl kinase domain = biological target: T1, c-Abl kinase domain; experiment: pTyr-Var library bacterial peptide display kinase screen (enrichment scores); format: biochemical
Fer kinase domain = experiment: as above; format: biochemical, mouse; settings: sheet "Fer"
EPHB1 kinase domain = experiment: as above; format: biochemical, human; settings: for Screen: sheet EPHB1, effect of the variant peptide relative to its reference peptide in the pTyr-Var library screen (enrichment scores); for Screen (variant relative to reference peptide, measured in the pTyr-Var library screen): sheet "EPHB1", variant seq vs reference seq, bacterial peptide display enrichment
c-Src kinase domain [1] = biological target: T2, c-Src kinase domain (Homo sapiens, UniProt P12931); experiment: as above; format: biochemical; settings: sheet "Src"
EPHB2 kinase domain = experiment: as above; format: biochemical, human; settings: sheet EPHB2
c-Src kinase domain [2] = biological target: T2, c-Src kinase domain; experiment: RP-HPLC assay to measure peptide phosphorylation kinetics; format: biochemical; settings: purified peptide substrate
[3] = biological target: human c-Src kinase domain (residues 260-528) (human) (UniProt P12931)
[4] = fig5-data2, sheet "Abl", Screen for the variant/reference peptide pair, pTyr-Var library
[5] = value of the variant peptide against its reference peptide in the pTyr-Var library screen with Fer
[6] = effect of the variant peptide relative to its reference peptide in the pTyr-Var library screen
[7] = effect of variant peptide relative to its reference peptide in the pTyr-Var library screen (enrichment scores)
[8] = variant peptide versus its reference peptide in the pTyr-Var library screen
[9] = variant peptide relative to its reference peptide, pTyr-Var library screen enrichment
[10] = effect of the variant relative to its reference peptide in the pTyr-Var library screen

Row | Molecule | Screen (Fer kinase domain; [5]) | Screen (EPHB1 kinase domain) | Screen (EPHB2 kinase domain; [7]) | further results
1 | FPLELYERVRI [PRKCG_Y312_M317I_YF] | 0.4614 | -0.1732 |  | Screen (c-Abl kinase domain; [4]): 2.263
2 | WSFNLYDINKD [KCNIP3_Y174_A170S] | -0.8483 |  | -1.005 | Screen (c-Src kinase domain [1]; [6]): -1.011
3 | KKHIPYKEHKS [CSNK1G1_Y205_R206K] | -0.8729 | -0.623 |  | 
4 | VFPIDYFFPPQ [AR_Y552_L548F_YF] |  |  | 0.813 | 
5 | LEHCQYVTQKV [ALDOB_Y204_E207Q] | -1.432 | -0.6551 | -0.3412 | 
6 | Ac-AGQEKYSAMRD-NH2 [HRAS-Y64-E63K] |  |  |  | Phosphorylation Rate (c-Src kinase domain [2]): 0.027 s⁻¹
7 | SEEVNYATLTF [CLEC12B_Y7_T6N] | -0.6417 | 0.955 |  | Screen (c-Src kinase domain [1]; [6]): -1.881; Screen (c-Abl kinase domain; [4]): 1.648
8 | MKNDLYQTPLH [NFKB1_Y582_R578K] | -0.9562 |  | -1.089 | Screen (c-Src kinase domain [1]; [8]): -0.3133
9 | VFLGAYDCFLP [SLC22A5_Y486_R488C_YF] |  |  | 1.473 | Screen (c-Src kinase domain [1]; [8]): 0.189; Screen (Fer kinase domain; [9]): 1.979; Screen (variant relative to reference peptide, measured in the pTyr-Var library screen) (EPHB1 kinase domain): 1.419
10 | RNEAFYDTFST [EFCAB3_Y372_S370A] | -0.7665 | -3.139 | -2.77 | Screen (c-Src kinase domain [1]; [6]): -0.05343; Screen (c-Abl kinase domain; [4]): 0.8648
11 | FEDTLYTVLHR [UNC13D_Y61_A59T_YF] |  |  |  | Screen (c-Src kinase domain [1]; [8]): -0.1643; Screen (Fer kinase domain; [9]): -0.9596; Screen (variant relative to reference peptide, measured in the pTyr-Var library screen) (EPHB1 kinase domain): -0.7483; Screen (EPHB2 kinase domain; [10]): -1.461
12 | HSSPVYVGRVV [TGM2_Y219_R214H] |  |  |  | Screen (c-Src kinase domain [1]; [8]): 0.1113; Screen (Fer kinase domain; [9]): 0.4894; Screen (variant relative to reference peptide, measured in the pTyr-Var library screen) (EPHB1 kinase domain): 1.553
13 | Ac-WDLSEYSFKDP-NH2 [ITGA3_Y237_YF] |  |  |  | Phosphorylation Rate (c-Src kinase domain [2]): 0.555 s⁻¹
14 | HNLPIYEGFAL [ACTA1_Y168_V165L_YF] | -0.04484 | -0.3324 | -0.1826 | Screen (c-Src kinase domain [1]; [6]): -0.1626; Screen (c-Abl kinase domain; [4]): 0.278
15 | GHEFIYVDRMQ [PDGFRB_Y581_P584R_YF] | -2.31 | -3.432 | -3.317 | Screen (c-Src kinase domain [1]; [8]): -0.3711
16 | FQEPVYSVAFS [TBL1X_Y509_H504Y_YF] |  |  | -0.3359 | Screen (c-Src kinase domain [1]; [8]): -0.2752; Screen (Fer kinase domain; [9]): -0.4973; Screen (variant relative to reference peptide, measured in the pTyr-Var library screen) (EPHB1 kinase domain): -0.4923
17 | FCRITYDIFPF [INTS13_Y67_M66T_YF] |  | -0.0851 | 0.3565 | Screen (c-Src kinase domain [1]; [6]): -0.3434; Screen (c-Abl kinase domain; [4]): 1.32
18 | HHIDFYKETTN [FGFR1_Y654_K656E_YF] |  |  | 2.27 | 
19 | Ac-LERFIYNREEL-NH2 [HLA-DPB1_Y59_F64L_YF, pTyr-Var library variant peptide, non-canonical c-Src substrate] |  |  |  | Phosphorylation Rate (c-Src kinase domain [2]): 0.258 s⁻¹; Screen (c-Src kinase domain [1]; [6]): 0.2529
20 | ADARMYGVLLW [PLP1_Y207_P211L] |  |  | -1.961 | Screen (c-Src kinase domain [1]; [8]): -0.7224
21 | EVEPTYVVLFD [ERCC4_Y577_R576T_YF] |  | 1.659 | 2.191 | Screen (c-Src kinase domain [1]; [6]): 2.973
22 | KNEIFYQCPDQ [FBXO3_Y223_V221I] | -0.5331 |  | -0.9058 | 

Row | Molecule | Screen (Fer kinase domain; [5]) | Screen (EPHB1 kinase domain) | Screen (EPHB2 kinase domain; [7]) | further results
23 | HNLNFYKKTTN [FGFR3_Y648_D646N_YF] | -1.085 | -1.233 | -1.314 | Screen (c-Src kinase domain [1]; [6]): -1.956
24 | ADELEYSRTGL [MMUT_Y287_G284E] |  |  | -1.178 | 
25 | LFEDHYLLGTS [ASS1_Y87_R86H_YF] |  | -1.664 | -0.9482 | 
26 | ATKNDYWAMLA [WWOX_Y287_P282A] |  |  |  | Screen (c-Abl kinase domain; sheet "Abl", effect of variant peptide relative to its reference peptide in pTyr-Var library screen (enrichment)): -2.008; Screen (variant relative to reference peptide, measured in the pTyr-Var library screen) (EPHB1 kinase domain): -0.006784; Screen (EPHB2 kinase domain; [10]): -0.4918
27 | LSIQTYSALNF [DES_Y423_P419S] | -2.047 | -1.829 | -1.403 | Screen (c-Src kinase domain [1]; [6]): -0.607
28 | Ac-GPDEPIYDMFPFKKKG-NH2 [Src Consensus (C-2P), Src Consensus variant with –2 Pro] |  |  |  | Phosphorylation Rate (c-Src kinase domain [2]): 12.667 s⁻¹
29 | QNTGVYFDLFG [PTPN11_Y62_D61V_YF] |  | -3.507 | -4.12 | Screen (c-Src kinase domain [1]; [8]): 0.4058; Screen (c-Abl kinase domain; [4]): 0.3099
30 | KSNSDYVDVLP [SH2D1B_Y127_N122K] |  |  | -0.9717 | Screen (variant relative to reference peptide, measured in the pTyr-Var library screen) (EPHB1 kinase domain): -0.2971
31 | ADGLEYSRTEL [MMUT_Y287_G291E] |  |  | -1.172 | 
32 | TLSGIYQFSIA [FOXL2_Y81_I84S_YF] | -1.302 | -3.13 | -3.18 | Screen (c-Src kinase domain [1]; [6]): -0.1944
33 | QSSALYEDCFL [ASS1_Y83_R86C_YF] | 0.6979 | 1.322 | 1.929 | Screen (c-Src kinase domain [1]; [6]): 1.263
34 | Ac-GPDESIYDMFPFKKKG-NH2 [Src Consensus (C-2S), Src Consensus variant with –2 Ser] |  |  |  | Phosphorylation Rate (c-Src kinase domain [2]): 5.171 s⁻¹
35 | SISFDYCRVPM [BST2_Y8_T4I_YF] |  | -2.179 | -2.162 | 
36 | PHQTIYGALMI [FGF23_Y70_S71G] | -2.622 | -3.192 | -2.622 | Screen (c-Src kinase domain [1]; [6]): -0.7948
37 | IVEELYAIPPD [PEAK1_Y797_S792I] | 0.2222 | 0.4436 | -0.0205 | Screen (c-Src kinase domain [1]; [8]): -0.02431
38 | RWQQLYDTLNA [EIF3M_Y351_Q346R] | -0.4426 | -0.05321 | 0.365 | Screen (c-Src kinase domain [1]; [6]): -0.1
39 | IFLGAYDRFLP [SLC22A5_Y486_V481I_YF] |  |  | -0.2361 | Screen (c-Src kinase domain [1]; [8]): -0.1658
40 | GREFIYVDPMQ [PDGFRA_Y574_H570R_YF] | -1.733 | -0.6275 | -0.4123 | Screen (c-Src kinase domain [1]; [8]): -0.9351
41 | ADARMYGDLPW [PLP1_Y207_V209D] |  |  | -2.321 | Screen (c-Src kinase domain [1]; [8]): -1.273
42 | RRIHCYRGHLW [VHL_Y112_S111C] |  |  |  | Screen (c-Src kinase domain [1]; [8]): -2.571; Screen (variant relative to reference peptide, measured in the pTyr-Var library screen) (EPHB1 kinase domain): -1.56
43 | Ac-GAEEEIYGEFEAKKKG-NH2 [SrcTide (1995) peptide Ac-…-NH2] |  |  |  | KM (μM) of phosphorylation, Michaelis-Menten analysis, ADP-Quest assay [3]: 64 µM
44 | Ac-GAEEEIYGIFGAKKKG-NH2 [SrcTide (2014) peptide Ac-…-NH2] |  |  |  | KM (μM) of phosphorylation, Michaelis-Menten analysis, ADP-Quest assay [3]: 7 µM
